# Assay results from paper PMC6175823, “Identification of novel acetylcholinesterase inhibitors designed by pharmacophore-based virtual screening, molecular docking and bioassay” (Scientific Reports, 2018).
# “Also recorded” adds a separate entry of the source.
# Test system: AChE
# Experiment: not given
# Conditions: ChEMBL dataset, Ellman assay ref 43; cited from earlier work
row,SMILES,Exp. pIC50
1,O=C(CCC1CCN(Cc2ccccc2)CC1)c1ccc2c(c1)CCN2 [CHEMBL75110],7.699
2,O=C1Cc2ccccc2CN1CCC1CCN(Cc2ccccc2)CC1 [CHEMBL140990],7.77
3,O=C(Nc1cccc2c1C(=O)N(CCC1CCN(Cc3ccccc3)CC1)C2=O)c1ccccc1 [CHEMBL141622],6.469
4,O=C(c1ccncc1)N(CCC1CCN(Cc2ccccc2)CC1)c1ccccc1 [CHEMBL340621],7.194
5,O=c1[nH]c2cc(Cl)ccc2c(=O)n1CCC1CCN(Cc2ccccc2)CC1 [CHEMBL138552],8.347
6,CN1CCCc2ccc(C(=O)CCC3CCN(Cc4ccccc4)CC3)cc21 [CHEMBL76470],7.444
7,O=C1c2cccc([N+](=O)[O-])c2C(=O)N1CCC1CCN(Cc2ccccc2)CC1 [CHEMBL141001],8.046
8,O=C(CCC1CCN(Cc2cccc(F)c2)CC1)c1ccc2c(c1)NCCCC2 [CHEMBL308093],6.839
9,O=C1c2ccc([N+](=O)[O-])cc2C(=O)N1CCC1CCN(Cc2ccccc2)CC1 [CHEMBL105874],7.903
10,CN(CCCCNc1ccc(-c2ccccc2)nn1)Cc1ccccc1 [CHEMBL1084257],4.959
11,O=C1c2cccnc2C(=O)N1CCC1CCN(Cc2ccccc2)CC1 [CHEMBL140106],7.886
12,CN(CCCCCNc1ccc(-c2ccccc2)nn1)Cc1ccccc1 [CHEMBL1083057],6.131
13,O=C1c2ccccc2CN1CCC1CCN(Cc2ccccc2)CC1 [CHEMBL333909],7.009
14,O=C(c1ccc([N+](=O)[O-])cc1)N(CCC1CCN(Cc2ccccc2)CC1)c1ccccc1 [CHEMBL126354],8.268
15,CN(CCNc1ccc(-c2ccccc2)nn1)Cc1ccccc1 [CHEMBL1086185],3.77
16,O=C(CCC1CCN(Cc2ccccc2)CC1)c1ccc2c(c1)NCCC2 [CHEMBL73593],6.785
17,CN1CCCc2cc(C(=O)CCC3CCN(Cc4ccccc4)CC3)ccc21 [CHEMBL1083660],7.62
18,CCn1c(C)nc2cc(C(=O)CCC3CCN(Cc4ccccc4)CC3)ccc21 [CHEMBL1082435],8.367
19,O=C1Nc2ccccc2CN1CCC1CCN(Cc2ccccc2)CC1 [CHEMBL141276],7.886
20,CC(=O)N(CCC1CCN(Cc2ccccc2)CC1)c1cccc(F)c1 [CHEMBL141167],7.187
21,O=C(CCC1CCN(Cc2cccc(Cl)c2)CC1)c1ccc2c(c1)NCCCC2 [CHEMBL420378],6.478
22,O=C(CCC1CCN(Cc2ccccc2)CC1)c1ccc2c(c1)OCO2 [CHEMBL1082434],7.523

row,SMILES,Exp. pIC50
1,CCN1CCCCc2ccc(C(=O)CCC3CCN(Cc4ccccc4)CC3)cc21 [CHEMBL310467],6.425
2,c1ccc(CN2CCC(Nc3ccc(-c4ccccc4)nn3)CC2)cc1 [CHEMBL1083058],4.187
3,Nc1cccc2c1C(=O)N(CCC1CCN(Cc3ccccc3)CC1)C2=O [CHEMBL138442],7.959
4,O=C(CCC1CCN(Cc2ccccc2)CC1)c1ccc2[nH]c(-c3ccccc3)nc2c1 [CHEMBL1082436],7.481
5,O=C1Cc2cc3c(CCC4CCN(Cc5ccccc5)CC4)noc3cc2N1 [CHEMBL359570],9.481
6,CN1CCc2cc(C(=O)CCC3CCN(Cc4ccccc4)CC3)ccc21 [CHEMBL311017],8
7,COc1cccc(N(CCC2CCN(Cc3ccccc3)CC2)C(C)=O)c1 [CHEMBL127527],7.337
8,COc1ccccc1CN1CCC(CCC(=O)c2ccc3c(c2)CCN3)CC1 [CHEMBL306776],6.09
9,O=C(Nc1ccc2c(c1)C(=O)N(CCC1CCN(Cc3ccccc3)CC1)C2=O)c1ccccc1 [CHEMBL138107],8.921
10,COc1ccccc1CN1CCC(CCC(=O)c2ccc3c(c2)NCCCC3)CC1 [CHEMBL309173],5.576
11,O=C(c1ccc(F)cc1)N(CCC1CCN(Cc2ccccc2)CC1)c1ccccc1 [CHEMBL140737],7.745
12,COc1ccc(N(CCC2CCN(Cc3ccccc3)CC2)C(C)=O)cc1 [CHEMBL141801],6.155
13,Cc1cc(-c2ccccc2)n[nH]c1=NCCC1CCN(Cc2ccccc2)CC1 [CHEMBL94054],6.495
14,O=C(Nc1ccccc1)c1ccc2c(c1)C(=O)N(CCC1CCN(Cc3ccccc3)CC1)C2=O [CHEMBL1084256],8.658
15,c1ccc(CN2CCC(CNc3ccc(-c4ccccc4)nn3)CC2)cc1 [CHEMBL1083367],4.252
16,O=C1c2ccccc2C(=O)N1CCC1CCN(Cc2ccccc2)CC1 [CHEMB L106891],7.097
17,COc1ccc(C(=O)N(CCC2CCN(Cc3ccccc3)CC2)c2ccccc2)cc1 [CHEMBL141873],6.229
18,Cc1nc2ccc(C(=O)CCC3CCN(Cc4ccccc4)CC3)cc2s1 [CHEMBL1084275],8.167
19,CC(=O)Nc1ccc2c(c1)C(=O)N(CCC1CCN(Cc3ccccc3)CC1)C2=O [CHEMBL433678],8.553
20,O=C1CCc2cc3c(CCC4CCN(Cc5ccccc5)CC4)noc3cc2N1 [CHEMBL329231],9.244
21,Cc1ccc2onc(CCC3CCN(Cc4ccccc4)CC3)c2c1 [CHEMBL433379],8.108
22,O=C1Cc2ccccc2C(=O)N1CCC1CCN(Cc2ccccc2)CC1 [CHEMBL141042],7.638

row,SMILES,Exp. pIC50
1,O=C1c2ccccc2CCN1CCC1CCN(Cc2ccccc2)CC1 [CHEMBL142014],6
2,Cc1cccc(CN2CCC(CCC(=O)c3ccc4c(c3)CCN4)CC2)c1 [CHEMBL306179],7.301
3,O=C1Cc2cc3onc(CCC4CCN(Cc5ccccc5)CC4)c3cc2N1 [CHEMBL328468],9.022
4,O=C1Cc2c(ccc3c(CCC4CCN(Cc5ccccc5)CC4)noc23)N1 [CHEMBL95020],8.444
5,O=C(CCC1CCN(Cc2ccccc2Cl)CC1)c1ccc2c(c1)CCN2 [CHEMBL306175],7.119
6,O=C(CCC1CCN(Cc2ccccc2)CC1)c1ccc2c(c1)CCN2c1ccccc1 [CHEMBL1085858],7.167
7,Brc1ccc2c(CCC3CCN(Cc4ccccc4)CC3)noc2c1 [CHEMBL330004],7.301
8,O=C(CCC1CCN(Cc2cccc([N+](=O)[O-])c2)CC1)c1ccc2c(c1)NCCCC2 [CHEMBL307832],6.409
9,O=C1c2ccccc2NCN1CCC1CCN(Cc2ccccc2)CC1 [CHEMBL141810],6.097
10,O=C(CCC1CCN(Cc2cccc(F)c2)CC1)c1ccc2c(c1)CCN2 [CHEMBL308807],7.796
11,Cc1nc2ccc(C(=O)CCC3CCN(Cc4ccccc4)CC3)cc2[nH]1 [CHEMBL1084790],7.921
12,O=C(CCC1CCN(Cc2ccccc2)CC1)c1ccc2c(c1)CCCN2 [CHEMBL1083661],7.268
13,CCN1CCc2cc(C(=O)CCC3CCN(Cc4ccccc4)CC3)ccc21 [CHEMBL308793],7.959
14,O=C(c1ccccc1)c1ccc2c(c1)C(=O)N(CCC1CCN(Cc3ccccc3)CC1)C2=O [CHEMBL140999],8.62
15,O=c1c2ccccc2ncn1CCC1CCN(Cc2ccccc2)CC1 [CHEMBL140328],5.921
16,O=c1c2ccccc2ccn1CCC1CCN(Cc2ccccc2)CC1 [CHEMBL141203],5.959
17,COc1ccc2c(c1)C(=O)N(CCC1CCN(Cc3ccccc3)CC1)C2=O [CHEMBL140770],8.097
18,O=C(CCC1CCN(Cc2ccccc2)CC1)c1ccc2c(c1)CCCN2c1ccccc1 [CHEMBL1083662],7.268
19,CCCN1CCCCc2ccc(C(=O)CCC3CCN(Cc4ccccc4)CC3)cc21 [CHEMBL307513],5.876
20,CCC(=O)N(CCC1CCN(Cc2ccccc2)CC1)c1ccccc1 [CHEMBL141853],6.081
21,N#Cc1ccc2c(CCC3CCN(Cc4ccccc4)CC3)noc2c1 [CHEMBL92775],6.996

# Molecular target: T1, horse butyrylcholinesterase (Equus caballus, UniProt P81908)
# T1 construct: purchased Sigma (St. Louis, MO)
# T1 sequence (P81908 whole entry): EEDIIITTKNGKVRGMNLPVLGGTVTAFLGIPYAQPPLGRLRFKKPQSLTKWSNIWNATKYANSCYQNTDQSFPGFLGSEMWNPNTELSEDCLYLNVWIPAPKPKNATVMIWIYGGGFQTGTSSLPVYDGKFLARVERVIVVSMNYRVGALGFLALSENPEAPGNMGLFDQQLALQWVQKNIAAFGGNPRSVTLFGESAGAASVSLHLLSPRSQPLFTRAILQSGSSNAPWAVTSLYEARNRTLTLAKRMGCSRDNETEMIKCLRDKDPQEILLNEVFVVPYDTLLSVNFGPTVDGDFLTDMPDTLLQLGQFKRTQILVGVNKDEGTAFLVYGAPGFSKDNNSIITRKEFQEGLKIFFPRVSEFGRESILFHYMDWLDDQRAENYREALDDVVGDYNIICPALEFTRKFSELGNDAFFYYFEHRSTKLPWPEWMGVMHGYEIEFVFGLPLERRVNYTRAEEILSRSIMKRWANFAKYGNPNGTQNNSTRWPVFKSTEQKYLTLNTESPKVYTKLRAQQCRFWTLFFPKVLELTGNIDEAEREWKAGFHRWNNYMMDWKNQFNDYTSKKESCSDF
# Experiment: biochemical
# Format: biochemical
# Conditions: modified Ellman's method, horse BuChE; read-out: bAchE IC50
# From the text: Acetylcholinesterase from electrophorus electricus (electric eel), horse butyrylcholinesterase, Acetylcholine iodide, S-butyrylthiocholine chloride and 5,5′-dithio-bis-nitrobenzoic acid (DTNB) were purchased from the Sigma (St. Louis, MO) while bovine serum albumin (BSA) purchased from Research and Diagnostic Technology (RDT). Buffers and other chemicals were purchases from pure chemicals as a pure experimental grade. All the reagents and experimental conditions were same as described by previous reports. […] Acetylcholinesterase and butyrylcholinesterase inhibition was performed spectrometrically using acetylthiocholine and butyrylthiocholine as a substrate. Experiment was performed with slight modification in the method described by Ellman et al.[78]. Then, […] sodium phosphate buffer (pH 8.0), enzyme preparation and different concentration of test compound was mixed and incubated for 30 min followed by the addition of DTNB and the reactions was initiated by adding respective enzyme substrate like acetylthiocholine iodide, butyrylthiocholine chloride for Acetylcholinesterase and butyrylcholinesterase inhibition assay respectively. The hydrolysis of acetylthiocholine or butyrylthiocholineyield a dark yellow 5-thio-2-nitrobenzoate anion because of the reaction between DTNB with enzyme and enzyme substrate. […] Solvent used for compound dilution was used for the negative control. Percentage inhibition was calculated taking negative control as 100%.
row,SMILES,IC50 [µM]
1,"COc1ccccc1OCCN(Cc1ccccc1)CC(O)CC(O)c1cccc2[nH]c3ccccc3c12 (centres unmarked) [6a, 4-(benzyl(2-(2-methoxyphenoxy)ethyl)amino)-1-(9H-carbazol-4-yl)butane-1,3-diol]",> 500

# Same assay, conditions: result in words
row,SMILES,effect against BchE
1,"COc1ccccc1OCCN(Cc1ccccc1)CC(O)CC(O)c1cccc2[nH]c3ccccc3c12 (centres unmarked) [6a, 4-(benzyl(2-(2-methoxyphenoxy)ethyl)amino)-1-(9H-carbazol-4-yl)butane-1,3-diol]",without inhibiting; also recorded: did not showed the effect

# Molecular target: T2, Acetylcholinesterase from electrophorus electricus (electric eel) (Electrophorus electricus, UniProt O42275)
# T2 construct: purchased Sigma (St. Louis, MO)
# T2 sequence (O42275 24-633): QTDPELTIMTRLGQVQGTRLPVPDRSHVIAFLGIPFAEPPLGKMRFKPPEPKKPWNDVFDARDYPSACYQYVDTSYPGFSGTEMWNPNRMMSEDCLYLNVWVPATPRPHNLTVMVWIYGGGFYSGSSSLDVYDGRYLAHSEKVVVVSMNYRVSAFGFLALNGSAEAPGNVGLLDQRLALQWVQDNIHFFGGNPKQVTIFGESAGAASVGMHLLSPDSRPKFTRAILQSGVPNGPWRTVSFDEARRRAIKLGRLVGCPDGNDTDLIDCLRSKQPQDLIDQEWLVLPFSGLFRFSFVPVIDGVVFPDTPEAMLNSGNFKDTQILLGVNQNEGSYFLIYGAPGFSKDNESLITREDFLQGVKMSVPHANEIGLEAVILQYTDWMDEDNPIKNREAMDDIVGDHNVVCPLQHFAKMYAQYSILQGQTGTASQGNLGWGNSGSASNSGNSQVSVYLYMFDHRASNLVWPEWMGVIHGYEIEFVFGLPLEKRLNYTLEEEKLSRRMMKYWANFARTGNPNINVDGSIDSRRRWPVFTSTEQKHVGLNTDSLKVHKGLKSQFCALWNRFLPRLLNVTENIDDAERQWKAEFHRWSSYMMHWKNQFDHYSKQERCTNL
# Experiment: biochemical
# Conditions: modified Ellman's method, eeAChE; read-out: AchE IC50
# From the text: Acetylcholinesterase from electrophorus electricus (electric eel), horse butyrylcholinesterase, Acetylcholine iodide, S-butyrylthiocholine chloride and 5,5′-dithio-bis-nitrobenzoic acid (DTNB) were purchased from the Sigma (St. Louis, MO) while bovine serum albumin (BSA) purchased from Research and Diagnostic Technology (RDT). Buffers and other chemicals were purchases from pure chemicals as a pure experimental grade. All the reagents and experimental conditions were same as described by previous reports. […] Acetylcholinesterase and butyrylcholinesterase inhibition was performed spectrometrically using acetylthiocholine and butyrylthiocholine as a substrate. Experiment was performed with slight modification in the method described by Ellman et al.[78]. Then, […] sodium phosphate buffer (pH 8.0), enzyme preparation and different concentration of test compound was mixed and incubated for 30 min followed by the addition of DTNB and the reactions was initiated by adding respective enzyme substrate like acetylthiocholine iodide, butyrylthiocholine chloride for Acetylcholinesterase and butyrylcholinesterase inhibition assay respectively. The hydrolysis of acetylthiocholine or butyrylthiocholineyield a dark yellow 5-thio-2-nitrobenzoate anion because of the reaction between DTNB with enzyme and enzyme substrate. […] Percentage inhibition was calculated taking negative control as 100%.
row,SMILES,IC50 [µM]
1,"COc1ccccc1OCCN(Cc1ccccc1)CC(O)CC(O)c1cccc2[nH]c3ccccc3c12 (centres unmarked) [6a, 4-(benzyl(2-(2-methoxyphenoxy)ethyl)amino)-1-(9H-carbazol-4-yl)butane-1,3-diol]",66
